Drawing on patent US20250213735A1, “NEUROPEPTIDE Y1 RECEPTOR (NPY1R) TARGETED THERAPEUTICS AND USES THEREOF” (Radionetics Oncology, Inc., priority 2023, published 2025), this text covers Ki for 16 compounds.

Numbered stars: 1 amine (or outer) side, 2 acyl side, 3 side chain; on linkers, the order of the positions; unused ones are H or OH. Square brackets hold non-standard residues; d marks the D form. Peptide text beside a SMILES is read from it. * marks the point of attachment. dArg(Nω-CONH(CH2)2NHCOEt) = CCC(=O)NCCNC(=O)/N=C(/N)NCCC[C@@H](N)C(=O)O; DOTA = O=C(O)CN1CCN(CC(=O)O)CCN(CC(=O)*)CCN(CC(=O)O)CC1; X1 = O=C([C@H](c1ccc(OCCCN[*:1])cc1)N1Cc2ccccc2C1)[*:2]; NH(2,6-F2-4-OH-benzyl) = Oc1cc(F)c(CN*)c(F)c1; βAla = NCCC(=O)O

In the experiment the target is hNPY1R (Homo sapiens (Human), UniProt P25929). The experiment can be described thus: NPY1R binding assay (SK-N-MC membrane, [125I]-Peptide YY competition).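 Also: bound radioligand separated by filtration over GF/C filter plates and counted, Ki obtained by non-linear regression.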 Conditions: crude SK-N-MC membranes endogenously expressing NPY1R; [125I]-Peptide YY (human) 0.05 nM; 120 min at room temperature; read-out: hNPY1R binding Ki.
Sequence of hNPY1R (P25929 whole entry): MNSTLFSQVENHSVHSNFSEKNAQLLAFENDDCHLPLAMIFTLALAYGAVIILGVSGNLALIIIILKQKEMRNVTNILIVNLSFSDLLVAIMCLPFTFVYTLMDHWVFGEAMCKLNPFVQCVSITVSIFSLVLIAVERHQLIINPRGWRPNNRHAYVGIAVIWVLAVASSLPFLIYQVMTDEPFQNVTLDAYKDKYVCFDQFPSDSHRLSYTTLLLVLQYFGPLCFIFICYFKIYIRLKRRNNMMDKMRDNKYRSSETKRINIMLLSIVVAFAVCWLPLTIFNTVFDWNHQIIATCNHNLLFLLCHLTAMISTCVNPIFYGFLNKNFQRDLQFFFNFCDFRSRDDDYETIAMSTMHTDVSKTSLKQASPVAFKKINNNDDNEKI
Method: Crude membrane fractions are prepared from SK-N-MC cells endogenously expressing the NPY1R receptor. The cells are grown to 85-100% confluence on standard tissue culture dishes in Eagle's Minimum Essential Medium supplemented with 10% dialyzed FBS. To prepare membranes, cells are scraped and collected in 1× Dulbecco's phosphate buffered saline and then pelleted at 1000 RPM's. The cell pellet is reconstituted in membrane preparation buffer (20 mM HEPES, 6 mM MgCl2 and 1 mM EGTA, protease inhibitor tablets, pH 7.4) and placed in a cell disruption vessel at 1000 PSI for 30 minutes on ice. The pressurized contents are then released and spun down at 1000 RPMs and the supernatant is collected and further centrifuged at 15,000 RPMs to pellet the membranes. The membrane pellet is resuspended in membrane preparation buffer, snap frozen and stored at −80° C. for later use.
Assay contents are then filtered through unifilter GF/C microplates and washed with 9×400 μl of cold wash buffer (25 mM HEPES, 5 mM MgCl2, 1 mM CaCl2), 500 mM NaCl, 0.1% Tween-20, pH 7.4). Assay plates are read using a Top Count NXT and Ki values for compounds are determined using a GraphPad Prism 6 non-linear regression analysis.
Regarding `CCNC(=O)/N=C(/N)NCCC[C@@H](NC(=O)C(c1ccccc1)N1CCC(C(C)(C)C)CC1)C(=O)NCc1ccc(O)cc1` (stereo partly drawn) [compound 91, (2R)-2-(2-(4-(tert-butyl)piperidin-1-yl)-2-phenylacetamido)-5-((Z)-2-(ethylcarbamoyl)guanidino)-N-(4-hydroxybenzyl)pentanamide], the Ki was less than 0.01 µM.

In the case of `CCC(=O)NCCNC(=O)/N=C(/N)NCCC[C@@H](NC(=O)[C@H](c1ccc(OCCCNC(=O)[C@@H](CO)NC(=O)CCNC(=O)CN2CCN(CC(=O)O)CCN(CC(=O)O)CCN(CC(=O)O)CC2)cc1)N1Cc2ccccc2C1)C(=O)NCc1c(F)cc(O)cc1F` [compound 48, 2,2′,2″-(10-(2-((3-(((R)-1-((3-(4-((1S,4R,Z)-9-amino-4-((2,6-difluoro-4-hydroxybenzyl)carbamoyl)-1-(isoindolin-2-yl)-2,11,16-trioxo-3,8,10,12,15-pentaazaoctadec-9-en-1-yl)phenoxy)propyl)amino)-3-hydroxy-1-oxopropan-2-yl)amino)-3-oxopropyl)amino)-2-oxoethyl)-1,4,7,10-tetraazacyclododecane-1,4,7-triyl)triacetic acid], the Ki is less than 0.01 µM.

In the case of `CCC(=O)NCCNC(=O)/N=C(/N)NCCC[C@@H](NC(=O)C(c1ccccc1)N1Cc2ccccc2C1)C(=O)NCc1ccc(O)cc1` (stereo partly drawn) [compound 60, (2R)—N-(4-hydroxybenzyl)-2-(2-(isoindolin-2-yl)-2-phenylacetamido)-5-((Z)-2-((2-propionamidoethyl)carbamoyl)guanidino)pentanamide], the inhibition constant (Ki) was less than 0.01 µM. The figure for `CCC(=O)NCCNC(=O)/N=C(/N)NCCC[C@@H](NC(=O)[C@H](c1ccc(OCCCNC(=O)[C@@H](CO)NC(=O)[C@@H](CO)NC(=O)[C@@H](CO)NC(=O)CCNC(=O)CN2CCN(CC(=O)O)CCN(CC(=O)O)CCN(CC(=O)O)CC2)cc1)N1Cc2ccccc2C1)C(=O)NCc1c(F)cc(O)cc1F` [compound 54, 2,2′,2″-(10-((8R,11R,14R)-19-(4-((1S,4R,Z)-9-amino-4-((2,6-difluoro-4-hydroxybenzyl)carbamoyl)-1-(isoindolin-2-yl)-2,11,16-trioxo-3,8,10,12,15-pentaazaoctadec-9-en-1-yl)phenoxy)-8,11,14-tris(hydroxymethyl)-2,6,9,12,15-pentaoxo-3,7,10,13,16-pentaazanonadecyl)-1,4,7,10-tetraazacyclododecane-1,4,7-triyl)triacetic acid] ({DOTA-βAla}-[dS][dS][dS][X1][dArg(Nω-CONH(CH2)2NHCOEt)]-{NH(2,6-F2-4-OH-benzyl)}) is less than 0.01 µM; for `CCC(=O)NCCNC(=O)/N=C(/N)NCCC[C@@H](NC(=O)[C@H](c1cccc(NCCCNC(=O)CCCCCNC(=O)CN2CCC(NC(=O)CN3CCN(CC(=O)O)CCN(CC(=O)O)CCN(CC(=O)O)CC3)CC2)c1)N1Cc2ccccc2C1)C(=O)NCc1ccc(O)cc1` [compound 28, 2,2′,2″-(10-(2-((1-(2-((6-((3-((3-((1S,4R,Z)-9-amino-4-((4-hydroxybenzyl)carbamoyl)-1-(isoindolin-2-yl)-2,11,16-trioxo-3,8,10,12,15-pentaazaoctadec-9-en-1-yl)phenyl)amino)propyl)amino)-6-oxohexyl)amino)-2-oxoethyl)piperidin-4-yl)amino)-2-oxoethyl)-1,4,7,10-tetraazacyclododecane-1,4,7-triyl)triacetic acid] it is less than 0.01 µM; for `CCC(=O)NCCNC(=O)/N=C(/N)NCCC[C@@H](NC(=O)[C@H](c1ccc(OCCCNC(=O)[C@@H](CC(N)=O)NC(=O)CCNC(=O)CN2CCN(CC(=O)O)CCN(CC(=O)O)CCN(CC(=O)O)CC2)cc1)N1Cc2ccccc2C1)C(=O)NCc1c(F)cc(O)cc1F` [compound 50, 2,2′,2″-(10-(2-((3-(((R)-4-amino-1-((3-(4-((1S,4R,Z)-9-amino-4-((2,6-difluoro-4-hydroxybenzyl)carbamoyl)-1-(isoindolin-2-yl)-2,11,16-trioxo-3,8,10,12,15-pentaazaoctadec-9-en-1-yl)phenoxy)propyl)amino)-1,4-dioxobutan-2-yl)amino)-3-oxopropyl)amino)-2-oxoethyl)-1,4,7,10-tetraazacyclododecane-1,4,7-triyl)triacetic acid] it is less than 0.01 µM.

Consider `CCCC1CCN([C@@H](C(=O)N[C@H](CCCNC(=N)N)C(=O)NCc2ccc(O)cc2)c2ccccc2)CC1` [78A, (R)-5-guanidino-N-(4-hydroxybenzyl)-2-((R)-2-phenyl-2-(4-propylpiperidin-1-yl)acetamido)pentanamide], for which the Ki was more than 1 µM.

Consider `CCC(=O)NCCNC(=O)/N=C(/N)NCCC[C@@H](NC(=O)[C@H](c1ccc(OCCCNC(=O)[C@@H](CC(N)=O)NC(=O)[C@@H](CO)NC(=O)CCNC(=O)CN2CCN(CC(=O)O)CCN(CC(=O)O)CCN(CC(=O)O)CC2)cc1)N1Cc2ccccc2C1)C(=O)NCc1c(F)cc(O)cc1F` [compound 51, 2,2′,2″-(10-((8R,11R)-11-(2-amino-2-oxoethyl)-16-(4-((1S,4R,Z)-9-amino-4-((2,6-difluoro-4-hydroxybenzyl)carbamoyl)-1-(isoindolin-2-yl)-2,11,16-trioxo-3,8,10,12,15-pentaazaoctadec-9-en-1-yl)phenoxy)-8-(hydroxymethyl)-2,6,9,12-tetraoxo-3,7,10,13-tetraazahexadecyl)-1,4,7,10-tetraazacyclododecane-1,4,7-triyl)triacetic acid], for which the Ki was less than 0.01 µM.

On to `CCC(=O)NCCNC(=O)/N=C(/N)NCCC[C@@H](NC(=O)[C@H](c1cccc(NC(=O)CCCNc2c(NCCCCCCNC(=O)CN3CCN(CC(=O)O)CCN(CC(=O)O)CCN(CC(=O)O)CC3)c(=O)c2=O)c1)N1Cc2ccccc2C1)C(=O)NCc1c(F)cc(O)cc1F` (single isomer, unassigned) [31A], for which the Ki was less than 0.01 µM. As to `CCC(=O)NCCNC(=O)/N=C(/N)NCCC[C@@H](NC(=O)[C@H](c1cccc(NCCCNC(=O)C[C@H](O)C[C@H](O)CCNC(=O)CN2CCN(CC(=O)O)CCN(CC(=O)O)CCN(CC(=O)O)CC2)c1)N1Cc2ccccc2C1)C(=O)NCc1ccc(O)cc1` [compound 29, 2,2′,2″-(10-(2-(((3R,5R)-7-((3-((3-((1S,4R,Z)-9-amino-4-((4-hydroxybenzyl)carbamoyl)-1-(isoindolin-2-yl)-2,11,16-trioxo-3,8,10,12,15-pentaazaoctadec-9-en-1-yl)phenyl)amino)propyl)amino)-3,5-dihydroxy-7-oxoheptyl)amino)-2-oxoethyl)-1,4,7,10-tetraazacyclododecane-1,4,7-triyl)triacetic acid], the Ki was less than 0.01 µM.

`CCC(=O)NCCNC(=O)/N=C(/N)NCCC[C@@H](NC(=O)C(c1ccc(OCCCN)cc1)N1Cc2ccccc2C1)C(=O)NCc1c(F)cc(O)cc1F` (stereo in doubt) [compound 62, (R)-2-((S)-2-(4-(3-aminopropoxy)phenyl)-2-(isoindolin-2-yl)acetamido)-N-(2,6-difluoro-4-hydroxybenzyl)-5-((Z)-2-((2-propionamidoethyl)carbamoyl)guanidino)pentanamide]: the Ki was less than 0.01 µM. The same measure for `CCC(=O)NCCNC(=O)/N=C(/N)NCCC[C@@H](NC(=O)[C@@H](c1ccccc1)N1Cc2ccccc2C1)C(=O)NCc1c(F)cc(O)cc1F` [61B, (R)—N-(2,6-difluoro-4-hydroxybenzyl)-2-((R)-2-(isoindolin-2-yl)-2-phenylacetamido)-5-((Z)-2-((2-propionamidoethyl)carbamoyl)guanidino)pentanamide]: less than 0.01 µM. The same measure for `CC1(C)CCCN(C(C(=O)N[C@H](CCCNC(=N)N)C(=O)NCc2ccc(O)cc2)c2ccccc2)C1` (stereo partly drawn) [compound 75, (2R)-2-(2-(3,3-dimethylpiperidin-1-yl)-2-phenylacetamido)-5-guanidino-N-(4-hydroxybenzyl)pentanamide]: 0.1 to 1 µM. The same measure for `CCC(=O)NCCNC(=O)/N=C(/N)NCCC[C@@H](NC(=O)[C@H](c1ccc(OCCCN2CCN(C(=O)CCCCCNC(=O)CN3CCN(CC(=O)O)CCN(CC(=O)O)CCN(CC(=O)O)CC3)CC2)cc1)N1Cc2ccccc2C1)C(=O)NCc1c(F)cc(O)cc1F` [compound 39, 2,2′,2″-(10-(2-((6-(4-(3-(4-((1S,4R,Z)-9-amino-4-((2,6-difluoro-4-hydroxybenzyl)carbamoyl)-1-(isoindolin-2-yl)-2,11,16-trioxo-3,8,10,12,15-pentaazaoctadec-9-en-1-yl)phenoxy)propyl)piperazin-1-yl)-6-oxohexyl)amino)-2-oxoethyl)-1,4,7,10-tetraazacyclododecane-1,4,7-triyl)triacetic acid]: less than 0.01 µM; for `CCC(=O)NCCNC(=O)/N=C(/N)NCCC[C@@H](NC(=O)[C@H](c1ccc(OCCCNC(=O)CCC(=O)NCCNC(=O)CN2CCN(CC(=O)O)CCN(CC(=O)O)CCN(CC(=O)O)CC2)cc1)N1Cc2ccccc2C1)C(=O)NCc1c(F)cc(O)cc1F` [compound 7, 2,2′,2″-(10-(2-((2-(4-((3-(4-((1S,4R,Z)-9-amino-4-((2,6-difluoro-4-hydroxybenzyl)carbamoyl)-1-(isoindolin-2-yl)-2,11,16-trioxo-3,8,10,12,15-pentaazaoctadec-9-en-1-yl)phenoxy)propyl)amino)-4-oxobutanamido)ethyl)amino)-2-oxoethyl)-1,4,7,10-tetraazacyclododecane-1,4,7-triyl)triacetic acid-2,2,2-trifluoroacetic acid (1/1)]: less than 0.01 µM; for `CCC(=O)NCCNC(=O)/N=C(/N)NCCC[C@@H](NC(=O)[C@H](c1ccccc1)N1Cc2cccc(NCCCNC(=O)CCCCCNC(=O)CN3CCN(CC(=O)O)CCN(CC(=O)O)CCN(CC(=O)O)CC3)c2C1)C(=O)NCc1c(F)cc(O)cc1F` [compound 33, 2,2′,2″-(10-(2-((6-((3-((2-((1S,4R,Z)-9-amino-4-((2,6-difluoro-4-hydroxybenzyl)carbamoyl)-2,11,16-trioxo-1-phenyl-3,8,10,12,15-pentaazaoctadec-9-en-1-yl)isoindolin-4-yl)amino)propyl)amino)-6-oxohexyl)amino)-2-oxoethyl)-1,4,7,10-tetraazacyclododecane-1,4,7-triyl)triacetic acid]: less than 0.01 µM.
